pIC50: −log10 of the molar value.
Legend:
[1] = target: T1, Intercellular adhesion molecule (ICAM-1), Integrin alpha-L/beta-2 (Homo sapiens, UniProt P05107+P20701); experiment: Ability to block the adherence of leukocyte function-associated antigen-1 (LFA-1) expressing JY-8 cells and intercellular adhesion molecule (ICAM-1) by 50% in absence of serum; format: cell-based
[2] = target: T2, Intercellular adhesion molecule (ICAM-1), Integrin alpha-L/beta-2 (Homo sapiens) (UniProt P20701+P05362+P05107); settings: JY-8
Description: 70% inhibition of JY-8 cell adhesion to ICAM-1 via leukocyte function-associated antigen-1 (LFA-1) without serum

[3] = target: T2, Intercellular adhesion molecule (ICAM-1), Integrin alpha-L/beta-2 (Homo sapiens); settings: JY-8; remark: listed apart in the source
Description: 80% inhibition of JY-8 cell adhesion to ICAM-1 via leukocyte function-associated antigen-1 (LFA-1) withouot serum

[4] = target: T1, Intercellular adhesion molecule (ICAM-1), Integrin alpha-L/beta-2; experiment: 50% inhibition of JY-8 cell adhesion to ICAM-1 via leukocyte function-associated antigen-1 (LFA-1) with 50% FBS; format: cell-based
[5] = target: T2, Intercellular adhesion molecule (ICAM-1), Integrin alpha-L/beta-2 (Homo sapiens); settings: JY-8; remark: listed apart in the source
Description: 70% inhibition of JY-8 cell adhesion to ICAM-1 via leukocyte function-associated antigen-1 (LFA-1) with 50% FBS

[6] = target: T2, Intercellular adhesion molecule (ICAM-1), Integrin alpha-L/beta-2 (Homo sapiens); settings: 50% FBS
Description: 80% inhibition of JY-8 cell adhesion to ICAM-1 via leukocyte function-associated antigen-1 (LFA-1) with 50% FBS

[7] = Oral bioavailability of compound at 5 mg/kg after po administration was determined in rat; format: ADME, organism-based; settings: in vivo
[8] = Cmax of compound at 5 mg/kg after po administration was determined in rat; format: ADME, organism-based; set-up: dose 5 mg/kg, route oral; settings: in vivo
[9] = Half life of compound at 5 mg/kg after po administration was determined in rat; format: ADME, organism-based; set-up: dose 5 mg/kg, route oral; settings: in vivo

T1 sequence (P20701 whole entry): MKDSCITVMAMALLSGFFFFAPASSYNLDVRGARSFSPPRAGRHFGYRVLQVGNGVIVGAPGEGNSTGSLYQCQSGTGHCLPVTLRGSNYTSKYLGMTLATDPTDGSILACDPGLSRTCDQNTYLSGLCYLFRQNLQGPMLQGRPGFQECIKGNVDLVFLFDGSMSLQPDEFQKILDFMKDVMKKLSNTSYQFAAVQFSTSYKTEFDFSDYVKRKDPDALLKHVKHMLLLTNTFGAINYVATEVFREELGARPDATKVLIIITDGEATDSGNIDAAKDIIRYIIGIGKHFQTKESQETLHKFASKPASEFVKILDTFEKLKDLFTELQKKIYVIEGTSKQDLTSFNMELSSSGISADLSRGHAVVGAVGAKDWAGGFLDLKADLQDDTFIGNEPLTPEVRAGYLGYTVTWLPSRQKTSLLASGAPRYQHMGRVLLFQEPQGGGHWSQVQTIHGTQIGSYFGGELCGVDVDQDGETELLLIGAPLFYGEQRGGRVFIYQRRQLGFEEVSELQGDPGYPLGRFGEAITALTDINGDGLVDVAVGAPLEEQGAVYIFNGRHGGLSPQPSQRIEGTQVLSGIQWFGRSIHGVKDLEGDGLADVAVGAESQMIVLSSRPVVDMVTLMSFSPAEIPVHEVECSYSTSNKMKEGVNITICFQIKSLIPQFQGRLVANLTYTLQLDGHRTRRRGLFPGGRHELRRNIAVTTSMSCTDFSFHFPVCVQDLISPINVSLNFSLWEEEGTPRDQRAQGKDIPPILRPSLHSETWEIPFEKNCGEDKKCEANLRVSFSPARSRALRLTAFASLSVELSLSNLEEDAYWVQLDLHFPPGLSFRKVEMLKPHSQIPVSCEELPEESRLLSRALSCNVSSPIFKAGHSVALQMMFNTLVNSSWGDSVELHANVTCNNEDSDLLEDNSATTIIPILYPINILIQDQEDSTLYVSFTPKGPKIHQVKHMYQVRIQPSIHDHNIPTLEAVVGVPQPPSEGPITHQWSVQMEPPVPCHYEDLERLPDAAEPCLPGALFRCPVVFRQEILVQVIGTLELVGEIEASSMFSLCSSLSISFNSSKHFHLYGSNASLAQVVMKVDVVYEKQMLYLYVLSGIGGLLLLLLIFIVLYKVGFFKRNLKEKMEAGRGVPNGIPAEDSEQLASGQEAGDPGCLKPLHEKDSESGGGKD
T1 sequence (P05362 whole entry, further chain): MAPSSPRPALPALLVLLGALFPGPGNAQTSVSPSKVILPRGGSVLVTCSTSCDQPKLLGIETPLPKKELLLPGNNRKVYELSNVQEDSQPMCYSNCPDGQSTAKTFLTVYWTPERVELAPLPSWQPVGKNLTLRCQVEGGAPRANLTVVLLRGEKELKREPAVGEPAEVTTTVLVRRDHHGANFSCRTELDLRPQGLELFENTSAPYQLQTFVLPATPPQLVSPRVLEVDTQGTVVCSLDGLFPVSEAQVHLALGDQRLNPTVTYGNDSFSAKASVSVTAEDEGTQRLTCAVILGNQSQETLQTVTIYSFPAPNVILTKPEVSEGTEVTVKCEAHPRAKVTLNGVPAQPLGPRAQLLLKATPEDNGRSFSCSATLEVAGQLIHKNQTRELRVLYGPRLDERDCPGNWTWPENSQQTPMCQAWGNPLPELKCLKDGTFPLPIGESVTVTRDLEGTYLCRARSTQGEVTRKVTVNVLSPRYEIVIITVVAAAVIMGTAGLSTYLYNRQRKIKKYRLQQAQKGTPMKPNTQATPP
T1 sequence (P05107 whole entry): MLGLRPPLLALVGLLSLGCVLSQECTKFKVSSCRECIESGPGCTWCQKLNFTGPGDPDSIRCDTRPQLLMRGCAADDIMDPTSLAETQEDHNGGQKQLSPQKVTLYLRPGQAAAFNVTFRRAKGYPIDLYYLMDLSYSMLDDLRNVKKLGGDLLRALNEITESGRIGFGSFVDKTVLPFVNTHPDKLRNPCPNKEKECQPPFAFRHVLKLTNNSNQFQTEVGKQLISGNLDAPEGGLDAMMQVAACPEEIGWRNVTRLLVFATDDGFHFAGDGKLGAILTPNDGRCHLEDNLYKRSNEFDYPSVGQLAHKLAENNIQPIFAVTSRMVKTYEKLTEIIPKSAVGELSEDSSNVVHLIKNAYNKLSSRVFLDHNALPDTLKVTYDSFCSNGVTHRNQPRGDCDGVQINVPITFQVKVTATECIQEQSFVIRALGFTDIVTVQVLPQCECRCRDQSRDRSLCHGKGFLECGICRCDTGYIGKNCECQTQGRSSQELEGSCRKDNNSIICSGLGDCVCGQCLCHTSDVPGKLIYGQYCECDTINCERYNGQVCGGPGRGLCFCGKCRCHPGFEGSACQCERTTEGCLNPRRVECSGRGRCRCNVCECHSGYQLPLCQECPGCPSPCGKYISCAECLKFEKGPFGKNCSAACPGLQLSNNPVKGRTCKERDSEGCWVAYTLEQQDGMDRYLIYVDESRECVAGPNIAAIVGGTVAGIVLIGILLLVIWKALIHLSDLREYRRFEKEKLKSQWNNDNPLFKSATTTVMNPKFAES

## O=C(O)C1CCN(c2ccccc2Sc2ccc(C3CC3C(=O)NCCCN3CCCC3=O)cc2C(F)(F)F)CC1 (stereo unspecified)
[1]
  pIC50: 6.21

## O=C(NCCCN1CCCC1=O)C1CC1c1ccc(Sc2ccccc2N2CCCCC2)c(C(F)(F)F)c1 (stereo unspecified)
[1]
  pIC50: 7.40

## O=C(O)C1CCCN(c2ccccc2Sc2ccc(C3CC3C(=O)NCCCN3CCCC3=O)cc2C(F)(F)F)C1 (stereo unspecified)
[1]
  pIC50: 7.30

## CCOC(=O)C1CCN(c2ccccc2Sc2ccc(C3CC3C(=O)NCCCN3CCCC3=O)cc2C(F)(F)F)CC1 (stereo unspecified)
[1]
  pIC50: 6.94

## CN1CCN(c2ccccc2Sc2ccc(C3CC3C(=O)NCCCN3CCCC3=O)cc2C(F)(F)F)CC1 (stereo unspecified)
[1]
  pIC50: 6.70

## CCOC(=O)C1CCCN(c2ccccc2Sc2ccc(C3CC3C(=O)NCCCN3CCCC3=O)cc2C(F)(F)F)C1 (stereo unspecified)
[1]
  pIC50: 7.00

## O=C(NCCCN1CCCC1=O)C1CC1c1ccc(Sc2ccccc2N2CCOCC2)c(C(F)(F)F)c1 (stereo unspecified)
[1]
  pIC50: 7.82

## O=C(NCCCN1CCCC1=O)C1CC1c1ccc(Sc2ccccc2N2CCCC2)c(C(F)(F)F)c1 (stereo unspecified)
[1]
  pIC50: 7.49

## CC(C)c1ccccc1Sc1ccc(C2CC2C(=O)NCCC(=O)O)c(Cl)c1Cl (single isomer, unassigned)
[1]
  pIC50: 7.47

## CC(C)c1ccccc1Sc1ccc(C2CC2C(=O)N2CCCCC2C(=O)O)c(Cl)c1Cl (single isomer, unassigned)
[1]
  pIC50: 7.48

## CC(C)c1ccccc1Sc1ccc(C2CC2C(=O)N2CCC(C(=O)O)CC2)c(Cl)c1Cl (single isomer, unassigned)
[1]
  pIC50: 7.68

## CC(C)c1ccccc1Sc1ccc(C2CC2C(=O)NCC(=O)O)c(Cl)c1Cl (single isomer, unassigned)
[1]
  pIC50: 7.48

## CC(C)c1ccccc1Sc1ccc(C2CC2C(=O)N2CCCC(C(=O)O)C2)c(Cl)c1Cl (stereo in doubt)
[1]
  pIC50: 7.77

## CC(C)c1ccccc1Sc1ccc(C2CC2C(=O)NCCCC(=O)O)c(Cl)c1Cl (stereo in doubt)
[1]
  pIC50: 7.59

## CC(C)c1ccccc1Sc1ccc(C2CC2C(=O)NCCCN2CCCC2=O)c(Cl)c1Cl (stereo in doubt)
[1]
  pIC50: 8.22

## CC(C)c1ccccc1Sc1ccc(C2CC2C(=O)NCCCN2CCCC2=O)c(Cl)c1Cl (stereo in doubt; 12a) [listing 1 of 2 here]
[1]
  pIC50: 8.15

## CC(C)c1ccccc1Sc1ccc(C2CC2C(=O)NCCCN2CCCC2=O)c(Cl)c1Cl (stereo in doubt; 12a) [listing 2 of 2 here]
[2]
  IC70: 40 nM
[3]
  IC80: 63 nM

## CC(C)c1ccccc1Sc1ccc(C2CC2C(=O)NCC(=O)O)c(Cl)c1Cl (stereo in doubt; 13a) [listing 1 of 2 here]
[1]
  pIC50: 7.92

## CC(C)c1ccccc1Sc1ccc(C2CC2C(=O)NCC(=O)O)c(Cl)c1Cl (stereo in doubt; 13a) [listing 2 of 2 here]
[2]
  IC70: 50 nM
[3]
  IC80: 95 nM

## CC(C)c1ccccc1Sc1ccc(C2CC2C(=O)NCCC(=O)O)c(Cl)c1Cl (stereo in doubt; 14a) [listing 1 of 2 here]
[1]
  pIC50: 8.10

## CC(C)c1ccccc1Sc1ccc(C2CC2C(=O)NCCC(=O)O)c(Cl)c1Cl (stereo in doubt; 14a) [listing 2 of 2 here]
[2]
  IC70: 26 nM
[3]
  IC80: 54 nM

## CC(C)c1ccccc1Sc1ccc(C2CC2C(=O)NCCCC(=O)O)c(Cl)c1Cl (stereo in doubt; 15a) [listing 1 of 2 here]
[1]
  pIC50: 8.15

## CC(C)c1ccccc1Sc1ccc(C2CC2C(=O)NCCCC(=O)O)c(Cl)c1Cl (stereo in doubt; 15a) [listing 2 of 2 here]
[2]
  IC70: 16 nM
[3]
  IC80: 9 nM

## CC(C)c1ccccc1Sc1ccc(C2CC2C(=O)N2CCCCC2C(=O)O)c(Cl)c1Cl (stereo in doubt; 16a) [listing 1 of 2 here]
[1]
  pIC50: 7.89
[4]
  pIC50: 5.83

## CC(C)c1ccccc1Sc1ccc(C2CC2C(=O)N2CCCCC2C(=O)O)c(Cl)c1Cl (stereo in doubt; 16a) [listing 2 of 2 here]
[2]
  IC70: 55 nM
[5]
  IC70: 3520 nM
[3]
  IC80: 110 nM
[6]
  IC80: 8820 nM

## CC(C)c1ccccc1Sc1ccc(C2CC2C(=O)N2CCCC(C(=O)O)C2)c(Cl)c1Cl (stereo in doubt; 17a) [listing 1 of 2 here]
[1]
  pIC50: 8.22

## CC(C)c1ccccc1Sc1ccc(C2CC2C(=O)N2CCCC(C(=O)O)C2)c(Cl)c1Cl (stereo in doubt; 17a) [listing 2 of 2 here]
[2]
  IC70: 13 nM
[3]
  IC80: 25 nM

## CC(C)c1ccccc1Sc1ccc(C2CC2C(=O)N2CCC(C(=O)O)CC2)c(Cl)c1Cl (stereo in doubt; 18a) [listing 1 of 2 here]
[1]
  pIC50: 8.05

## CC(C)c1ccccc1Sc1ccc(C2CC2C(=O)N2CCC(C(=O)O)CC2)c(Cl)c1Cl (stereo in doubt; 18a) [listing 2 of 2 here]
[2]
  IC70: 24 nM
[3]
  IC80: 54 nM

## O=C(O)C1CCCN(c2ccccc2Sc2ccc(C3CC3C(=O)NCCCN3CCCC3=O)c(Cl)c2Cl)C1 (stereo in doubt; 27) [listing 1 of 2 here]
[1]
  pIC50: 7.82
[4]
  pIC50: 7.48

## O=C(O)C1CCCN(c2ccccc2Sc2ccc(C3CC3C(=O)NCCCN3CCCC3=O)c(Cl)c2Cl)C1 (stereo in doubt; 27) [listing 2 of 2 here]
[2]
  IC70: 26 nM
[5]
  IC70: 120 nM
[3]
  IC80: 40 nM
[6]
  IC80: 210 nM

## O=C(O)C1CCCN(c2ccccc2Sc2ccc(C3CC3C(=O)NCCCN3CCCC3=O)c(Cl)c2Cl)C1 (stereo in doubt; 28) [listing 1 of 2 here]
[7]
  bioavailability: 27%
[8]
  Cmax: 350 ng/mL
[9]
  half-life: 1.2 h
[1]
  pIC50: 8.00
[4]
  pIC50: 7.54

## O=C(O)C1CCCN(c2ccccc2Sc2ccc(C3CC3C(=O)NCCCN3CCCC3=O)c(Cl)c2Cl)C1 (stereo in doubt; 28) [listing 2 of 2 here]
[2]
  IC70: 21 nM
[5]
  IC70: 116 nM
[3]
  IC80: 26 nM
[6]
  IC80: 199 nM

## O=C(O)C1CCCN(c2ccccc2Sc2ccc(C3CC3C(=O)NCCCN3CCCC3=O)c(Cl)c2Cl)C1 (stereo in doubt; 29) [listing 1 of 2 here]
[1]
  pIC50: 7.51
[4]
  pIC50: 6.19

## O=C(O)C1CCCN(c2ccccc2Sc2ccc(C3CC3C(=O)NCCCN3CCCC3=O)c(Cl)c2Cl)C1 (stereo in doubt; 29) [listing 2 of 2 here]
[2]
  IC70: 97 nM
[5]
  IC70: 2100 nM
[3]
  IC80: 142 nM
[6]
  IC80: 3200 nM

## O=C(O)C1CCCN(c2ccccc2Sc2ccc(C3CC3C(=O)NCCCN3CCCC3=O)c(Cl)c2Cl)C1 (stereo in doubt; 30) [listing 1 of 2 here]
[1]
  pIC50: 8.30
[4]
  pIC50: 7.57

## O=C(O)C1CCCN(c2ccccc2Sc2ccc(C3CC3C(=O)NCCCN3CCCC3=O)c(Cl)c2Cl)C1 (stereo in doubt; 30) [listing 2 of 2 here]
[2]
  IC70: 10 nM
[5]
  IC70: 89 nM
[3]
  IC80: 19 nM
[6]
  IC80: 133 nM

From ChEMBL document CHEMBL1134036, “Discovery and SAR of diarylsulfide cyclopropylamide LFA-1/ICAM-1 interaction antagonists” (Bioorg Med Chem Lett, 2001)
